The test system of assay [1] is Puccinia recondita tritici = Puccinia triticina. The assay can be described thus: Fungicidal activity vs. leaf rust on wheat plants. In kind it is in vivo. Particulars: wheat (variety Yuma) sprayed at 50 ppm, inoculated on the following day, evaluated 7-9 days later; read-out: Puccinia Rating (% Disease Control @ 50 ppm). From the text: D. Evaluation of Fungicidal Activity Vs. Leaf Rust (Causal Agent Puccinia recondita tritici=Puccinia triticina; Bayer Code PUCCRT). […] Each pot contained 3-8 seedlings. These plants were sprayed until wet with the formulated test compounds. The compounds were formulated at 50 ppm in 10 vol. % acetone plus 90 vol. % Triton X water (deionized water 99.99 wt %+0.01 wt % Triton X100), giving a “formulated test compound.” Formulated test compounds were applied to plants using a turn table sprayer fitted with two opposing air atomization nozzles which delivered approximately 1500 L/ha of spray volume. On the following day, the leaves were inoculated with an aqueous spore suspension of Puccinia recondita tritici and the plants were kept in high humidity overnight to permit spores to germinate and infect the leaf. The plants were then transferred to a greenhouse until disease developed on untreated control plants. Disease severity was evaluated 7-9 days later, depending on the speed of disease development. In each case of Table 3, the Puccinia rating scale is as follows: […]

The test system of assay [2] is Septoria tritici (ATCC 26517). As to the kind of experiment: Minimum Inhibitory Concentration (MIC) (Septoria tritici), CLSI-based microdilution. Particulars: Zymoseptoria tritici, ATCC26517, 168 h, S. tritici ATCC 26517; 22° C. for seven days; 50% reduction in growth; read-out: Septoria Rating (MIC). In kind it is cell-based. The procedure:
C. Minimum Inhibitory Concentration (MIC) (Septoria tritici)
Compounds of the present disclosure were assessed for their ability to inhibit the growth of a common strain of the fungal plant pathogen Septoria tritici (ATCC 26517) using a procedure based on a Clinical and Laboratory Standards Institute (CLSI) microdilution assay protocol for filamentous fungi.
Stock solutions of the test compounds and standards were prepared in DMSO at 6400 μg/mL. Each stock solution was used to prepare a 2-fold dilution series ranging from 16 to 0.016 μg/mL (total of 11 compound concentrations) in RPMI-1640 (Roswell Park Memorial Institute) medium containing 3-(N-morpholino)propanesulfonic acid (MOPS) buffer and 2% DMSO. A 100 μL aliquot of the dilutions was added to columns 1 (16 μg/mL compound) through 11 (0.016 μg/mL compound) of a 96-well microtiter plate. This format was replicated in a second row of the microtiter plate. Thus, each microtiter plate could include 11 concentrations of four test or control compounds replicated twice. A 100 μL aliquot of RPMI-1640/MOPS/2% DMSO medium was added to column 12 (no compound control) of the microtiter plate.
A fresh culture of S. tritici was used to prepare a solution of approximately 5×10^4 colony-forming units per milliliter (cfu/mL) in RPMI/MOPS medium without DMSO. A 100 µL aliquot of this solution was added to all 96 wells in the microtiter plate. […] The assay plates were incubated at 22° C. for seven days in the dark without shaking.
In each case of Table 3 the Septoria rating scale is as follows: […]

SMILES strings stand for the structures. Values after ≈ are worked out from the molar mass of the structure shown. Where only a bound is given, the exact number is not on record here.

For orientation: MIC means the least concentration at which growth counts as inhibited.

As for `OC(Cn1cnnn1)(c1ccc(Cl)cc1F)C(F)(F)c1ccc(-n2nccn2)cn1` (stereo not shown) [Compound 28, 1-(5-(2H-1,2,3-Triazol-2-yl)pyridin-2-yl)-2-(4-chloro-2-fluorophenyl)-1,1-difluoro-3-(1H-tetrazol-1-yl)propan-2-ol], in assay [1], the pest or weed control at 50 ppm lay within 80 to 100%. Further, the MIC in assay [2] was at most 0.5 µg/mL.

As to `OC(Cn1cncn1)(c1ccc(F)cc1F)C(F)(F)c1ccc(Cl)cn1` (stereo not shown) [Compound 29, 1-(5-Chloropyridin-2-yl)-2-(2,4-difluorophenyl)-1,1-difluoro-3-(1H-1,2,4-triazol-1-yl)propan-2-ol], the pest or weed control at 50 ppm in assay [1] was in the range of 80 to 100%. Besides, in assay [2], the MIC was at most 0.5 µg/mL.

As to `COc1ccc(-c2ccc(C(F)(F)C(O)(Cn3cnnn3)c3ccc(F)cc3F)nc2)s1` (stereo not shown) [Compound 32, 2-(2,4-Difluorophenyl)-1,1-difluoro-1-(5-(5-methoxythiophen-2-yl)pyridin-2-yl)-3-(1H-tetrazol-1-yl)propan-2-ol], in assay [1], the pest or weed control at 50 ppm is 40 to 59%. Also, the MIC in assay [2] was at most 0.5 µg/mL.

For the molecule `OC(Cn1cnnn1)(c1ccc(F)cc1F)C(F)(F)c1ccc(-c2ccc(C(F)F)s2)cn1` (stereo not shown) [Compound 33, 1-(5-(5-(Difluoromethyl)thiophen-2-yl)pyridin-2-yl)-2-(2,4-difluorophenyl)-1,1-difluoro-3-(1H-tetrazol-1-yl)propan-2-ol], in assay [1], the pest or weed control at 50 ppm is 80 to 100%. For the same molecule, the MIC in assay [2] is at most 0.5 µg/mL.

For `OC(Cn1cnnn1)(c1ccc(F)cc1F)C(F)(F)c1ccc(-c2ccc(C(F)(F)F)s2)cn1` (stereo not shown) [Compound 34, 2-(2,4-Difluorophenyl)-1,1-difluoro-3-(1H-tetrazol-1-yl)-1-(5-(5-(trifluoromethyl)thiophen-2-yl)pyridin-2-yl)propan-2-ol], the pest or weed control at 50 ppm in assay [1] lay within 80 to 100%. Moreover, the MIC in assay [2] came out at 1.5 µg/mL (≈ 2.98 µM).

In the case of `OC(Cn1cnnn1)(c1ccc(F)cc1F)C(F)(F)c1ccc(-c2nccs2)cn1` (stereo not shown) [Compound 38, 2-(2,4-Difluorophenyl)-1,1-difluoro-3-(1H-tetrazol-1-yl)-1-(5-(thiazol-2-yl)pyridin-2-yl)propan-2-ol], in assay [1], the pest or weed control at 50 ppm lay in the range of 80 to 100%. Moreover, the MIC in assay [2] was at most 0.5 µg/mL.

For the molecule `OC(Cn1cnnn1)(c1ccc(Cl)cc1F)C(F)(F)c1ccc(CC(F)(F)F)cn1` (stereo not shown) [Compound 39, 2-(4-Chloro-2-fluorophenyl)-1,1-difluoro-3-(1H-tetrazol-1-yl)-1-(5-(2,2,2-trifluoroethyl)pyridin-2-yl)propan-2-ol], the pest or weed control at 50 ppm in assay [1] was in the range of 80 to 100%. The MIC in assay [2] was at most 0.5 µg/mL.

On to `OC(Cn1cnnn1)(c1ccc(Cl)cc1F)C(F)(F)c1ccc(C2CC2)cn1` (stereo not shown) [Compound 40, 2-(4-Chloro-2-fluorophenyl)-1-(5-cyclopropylpyridin-2-yl)-1,1-difluoro-3-(1H-tetrazol-1-yl)propan-2-ol], for which, in assay [1], the pest or weed control at 50 ppm is 80 to 100%. Besides, the MIC in assay [2] was at most 0.5 µg/mL.

With `OC(Cn1cnnn1)(c1ccc(F)cc1F)C(F)(F)c1ccc(CCCOCC(F)(F)F)cn1` (stereo not shown) [Compound 45, 2-(2,4-Difluorophenyl)-1,1-difluoro-3-(1H-tetrazol-1-yl)-1-(5-(3-(2,2,2-trifluoroethoxy)propyl)pyridin-2-yl)propan-2-ol], in assay [1], the pest or weed control at 50 ppm was 80 to 100%. For the same molecule, the MIC in assay [2] was at most 0.5 µg/mL.

For `CCOC/C=C/c1ccc(C(F)(F)C(O)(Cn2cnnn2)c2ccc(F)cc2F)nc1` (stereo not shown) [Compound 51, (E)-2-(2,4-Difluorophenyl)-1-(5-(3-ethoxyprop-1-en-1-yl)pyridin-2-yl)-1,1-difluoro-3-(1H-tetrazol-1-yl)propan-2-ol], the pest or weed control at 50 ppm in assay [1] was below 40%. The MIC in assay [2] was at most 0.5 µg/mL.

For the molecule `CCOC/C=C\c1ccc(C(F)(F)C(O)(Cn2cnnn2)c2ccc(F)cc2F)nc1` (stereo not shown) [Compound 52, (Z)-2-(2,4-Difluorophenyl)-1-(5-(3-ethoxyprop-1-en-1-yl)pyridin-2-yl)-1,1-difluoro-3-(1H-tetrazol-1-yl)propan-2-ol], the pest or weed control at 50 ppm in assay [1] is below 40%. Moreover, the MIC in assay [2] was at most 0.5 µg/mL.

As for `CCOCCCc1ccc(C(F)(F)C(O)(Cn2cnnn2)c2ccc(F)cc2F)nc1` (stereo not shown) [Compound 53, 2-(2,4-Difluorophenyl)-1-(5-(3-ethoxypropyl)pyridin-2-yl)-1,1-difluoro-3-(1H-tetrazol-1-yl)propan-2-ol], in assay [1], the pest or weed control at 50 ppm lay within 80 to 100%. In addition, in assay [2], the MIC was at most 0.5 µg/mL.

In the case of `CC(C)OC/C=C/c1ccc(C(F)(F)C(O)(Cn2cnnn2)c2ccc(F)cc2F)nc1` (stereo not shown) [Compound 54, (E)-2-(2,4-Difluorophenyl)-1,1-difluoro-1-(5-(3-isopropoxyprop-1-en-1-yl)pyridin-2-yl)-3-(1H-tetrazol-1-yl)propan-2-ol], the pest or weed control at 50 ppm in assay [1] was below 40%. Also, the MIC in assay [2] came out at 1.5 µg/mL (≈ 3.32 µM).

On to `OC(Cn1cnnn1)(c1ccc(F)cc1F)C(F)(F)c1ccc(CC2CC2)cn1` (stereo not shown) [Compound 59, 1-(5-(Cyclopropylmethyl)pyridin-2-yl)-2-(2,4-difluorophenyl)-1,1-difluoro-3-(1H-tetrazol-1-yl)propan-2-ol], for which the pest or weed control at 50 ppm in assay [1] was in the range of 80 to 100%. Further, in assay [2], the MIC is at most 0.5 µg/mL.

In the case of `OC(Cn1cnnn1)(c1ccc(Cl)cc1F)C(F)(F)c1ccc(CC2CC2)cn1` (stereo not shown) [Compound 60, 2-(4-Chloro-2-fluorophenyl)-1-(5-(cyclopropylmethyl)pyridin-2-yl)-1,1-difluoro-3-(1H-tetrazol-1-yl)propan-2-ol], in assay [1], the pest or weed control at 50 ppm was in the range of 80 to 100%. For the same molecule, the MIC in assay [2] is at most 0.5 µg/mL.

As for `O=C(c1ccc(C(F)(F)F)cc1)c1ccc(C(F)(F)C(O)(Cn2cnnn2)c2ccc(F)cc2F)nc1` (stereo not shown) [Compound 66, (6-(2-(2,4-Difluorophenyl)-1,1-difluoro-2-hydroxy-3-(1H-tetrazol-1-yl)propyl)pyridin-3-yl)(4-(trifluoromethyl)phenyl)methanone], in assay [1], the pest or weed control at 50 ppm lay within 80 to 100%. In addition, the MIC in assay [2] is at most 0.5 µg/mL.

Take `O=C(c1ccc(Cl)cc1)c1ccc(C(F)(F)C(O)(Cn2cnnn2)c2ccc(F)cc2F)nc1` (stereo not shown) [Compound 67, (4-Chlorophenyl)(6-(2-(2,4-difluorophenyl)-1,1-difluoro-2-hydroxy-3-(1H-tetrazol-1-yl)propyl)pyridin-3-yl)methanone]: in assay [1], the pest or weed control at 50 ppm was in the range of 80 to 100%. For the same molecule, the minimal inhibitory concentration (MIC) in assay [2] was at most 0.5 µg/mL.

Turning to `O=C(c1ccc(OCC(F)(F)F)cc1)c1ccc(C(F)(F)C(O)(Cn2cnnn2)c2ccc(F)cc2F)nc1` (stereo not shown) [Compound 68, (6-(2-(2,4-Difluorophenyl)-1,1-difluoro-2-hydroxy-3-(1H-tetrazol-1-yl)propyl)pyridin-3-yl)(4-(2,2,2-trifluoroethoxy)phenyl)methanone], the pest or weed control at 50 ppm in assay [1] fell in the range of 80 to 100%. Besides, in assay [2], the MIC is at most 0.5 µg/mL.

On to `O=C(c1ccc(F)cc1)c1ccc(C(F)(F)C(O)(Cn2cnnn2)c2ccc(F)cc2F)nc1` (stereo not shown) [Compound 69, (6-(2-(2,4-Difluorophenyl)-1,1-difluoro-2-hydroxy-3-(1H-tetrazol-1-yl)propyl)pyridin-3-yl)(4-fluorophenyl)methanone], for which the pest or weed control at 50 ppm in assay [1] fell in the range of 80 to 100%. Besides, the MIC in assay [2] is at most 0.5 µg/mL.

For `O=C(c1ccc(C(F)(F)C(O)(Cn2cnnn2)c2ccc(F)cc2F)nc1)c1ccc(Cl)c(F)c1` (stereo not shown) [Compound 71, (4-Chloro-3-fluorophenyl)(6-(2-(2,4-difluorophenyl)-1,1-difluoro-2-hydroxy-3-(1H-tetrazol-1-yl)propyl)pyridin-3-yl)methanone], in assay [1], the pest or weed control at 50 ppm lay in the range of 80 to 100%. Moreover, the MIC in assay [2] is at most 0.5 µg/mL.

(Values after patent US9221791B2, “Metalloenzyme inhibitor compounds” (Viamet Pharmaceuticals, Inc., priority 2011, dated 2015).)
